Assay results published in patent US6423887B1, “Glyphosate tolerant fescue grass variety” (Pure Seed Testing, Inc., priority 2001, dated 2002).

How the values were obtained:
Assay type in all cases: in vivo, Festuca arundinacea
[1] = tested on: seedlings, progenies of the 23 5RU clones; experiment: Greenhouse glyphosate screening of seedlings; conditions: one quart per acre, sprayed at the three to four leaf stage, 74 out of 150
Kentucky 31 tall fescue = experiment: Glyphosate tolerance field trial, turf seeded fall 1998 near Hubbard, Oreg.; conditions: for Herbicide damage: scale 1-9, 9=no glyphosate damage; for Summer Stress: scale 1-9; for Turf quality (no herbicide): scale 1-9, 9=ideal quality
Protocol: (§1) The following tables show examples of field trials in which the glyphosate resistance characteristics of the Tomahawk RT variety were examined and compared to currently used tall fescue grass varieties. Grasses were seeded in the fall of 1998 near Hubbard, Oreg. and rated between November 1998 and September 1999.
(§2) 2, 1999. The score ratings are based on a scale of 1 to 9. For herbicide damage: 9 =no glyphosate damage; 8-7=10-20% yellowing; 6-5=30-40% yellowing with minor growth retardation; 4-3=50-60% yellowing with growth retardation; 2-1=70-90% yellowing with dead turf. For turf quality: 9=best turf quality, 0=dead turf.
(§3) Grasses were sprayed with 1 pint per acre glyphosate on Nov. 19, 1998 and ½ pint (8 oz.) per acre on Mar. 2, 1999. The effect of the herbicide application on turf quality and on glyphosate damage is shown, using a scale of 1 to 9 as described for Table 3 (9: ideal quality; no disease; no glyphosate damage). In addition, the percent of damage due to herbicide application (which indicates yellowing, stunting, and death) is shown.

Tomahawk RT tall fescue = experiment: as above; conditions: for Herbicide damage: scale 1-9, 9=no glyphosate damage; for Summer Stress: scale 1-9; for Turf quality (no herbicide): scale 1-9, 9=ideal quality
Protocol: as §1, §2, §3

Tomahawk E tall fescue = experiment: as above; conditions: for Herbicide damage: scale 1-9, 9=no glyphosate damage; for Summer Stress: scale 1-9; for Turf quality (no herbicide): scale 1-9, 9=ideal quality
Protocol: as §1, §2, §3

Tar Heel tall fescue = experiment: as above; conditions: for Herbicide damage: scale 1-9, 9=no glyphosate damage; for Summer Stress: scale 1-9; for Turf quality (no herbicide): scale 1-9, 9=ideal quality
Protocol: as §1, §2, §3

5HU tall fescue = experiment: as above; conditions: for Herbicide damage: scale 1-9, 9=no glyphosate damage; for Summer Stress: scale 1-9; for Turf quality (no herbicide): scale 1-9, 9=ideal quality
Protocol: as §1, §2, §3

Pure Gold tall fescue = experiment: as above; conditions: for Herbicide damage: scale 1-9, 9=no glyphosate damage; for Summer Stress: scale 1-9; for Turf quality (no herbicide): scale 1-9, 9=ideal quality
Protocol: as §1, §2, §3

Wolfpack tall fescue = experiment: as above; conditions: for Herbicide damage: scale 1-9, 9=no glyphosate damage; for Summer Stress: scale 1-9; for Turf quality (no herbicide): scale 1-9, 9=ideal quality
Protocol: as §1, §2, §3

[2] = tested on: cloned survivors from Coronado, Apache II and Tomahawk; experiment: Glyphosate screening of vegetative clones in cell pack planting flats; conditions: 1 quart per acre glyphosate with WA-100, clones in cell pack planting flats, sprayed 1 month after cloning
[3] = 1/2 pint (8 oz.) per acre sprayed Mar. 2, 1999, rated 1 April
[4] = 1/2 pint (8 oz.) per acre sprayed Mar. 2, 1999, rated 20 April
[5] = 1/2 pint (8 oz.) per acre sprayed Mar. 2, 1999, rated 24 Sept
[6] = 1 pint per acre Nov. 19, 1998 and 1/2 pint per acre Mar. 2, 1999, rated 1 Apr
[7] = 1 pint per acre Nov. 19, 1998 and 1/2 pint per acre Mar. 2, 1999, rated 1 May
[8] = 1 pint per acre Nov. 19, 1998 and 1/2 pint per acre Mar. 2, 1999, rated 20 Apr
[9] = 1 pint per acre Nov. 19, 1998 and 1/2 pint per acre Mar. 2, 1999, rated 24 Sept
[10] = 1 pint per acre sprayed Nov. 19, 1998, rated 2 Mar
[11] = 1 pint per acre sprayed Nov. 19, 1998, rated 26 Dec, % damage (yellowing, stunting, death)
[12] = 1 pint per acre sprayed Nov. 19, 1998, rated 26 Jan
[13] = 1/2 pint per acre of glyphosate herbicide (41% w/v glyphosate), field, January through September 1999
[14] = 1 pint per acre of agricultural formulation (about 0.056 g per square meter glyphosate)

## O=C(O)CNCP(=O)(O)O [Glyphosate, N-(phosphonomethyl) glycine]
[1]
  seedlings survived: 50%
Kentucky 31 tall fescue; [3]
  Herbicide damage: 3.3
Kentucky 31 tall fescue; [4]
  Herbicide damage: 3.8
Kentucky 31 tall fescue; [5]
  Summer Stress: 4.5
Kentucky 31 tall fescue; [6]
  Herbicide damage %: 33.8%
  Turf quality (no herbicide): 2.0
Kentucky 31 tall fescue; [7]
  Turf quality (no herbicide): 4.0
Kentucky 31 tall fescue; [8]
  Turf quality (no herbicide): 3.3
Kentucky 31 tall fescue; [9]
  Summer Stress: 5.8
Kentucky 31 tall fescue; [10]
  Herbicide damage: 2.8
Kentucky 31 tall fescue; [11]
  Herbicide damage %: 75.0%
Kentucky 31 tall fescue; [12]
  Turf quality (no herbicide): 2.0
  Herbicide damage: 2.0
Tomahawk RT tall fescue; [3]
  Herbicide damage: 7.5
Tomahawk RT tall fescue; [4]
  Herbicide damage: 7.3
Tomahawk RT tall fescue; [5]
  Summer Stress: 6.5
Tomahawk RT tall fescue; [13]
  reduction in growth rate: no substantial reduction in growth rate
  yellowing of the grass: only minor amounts of yellowing
Tomahawk RT tall fescue; [6]
  Herbicide damage %: 72.5%
  Turf quality (no herbicide): 6.3
Tomahawk RT tall fescue; [7]
  Turf quality (no herbicide): 6.5
Tomahawk RT tall fescue; [8]
  Turf quality (no herbicide): 6.0
Tomahawk RT tall fescue; [9]
  Summer Stress: 7.8
Tomahawk RT tall fescue; [14]
  recovery of grass plants not killed: complete recovery
  yellowing and retardation of plant growth: more yellowing of the grasses and a substantial retardation of plant growth
Tomahawk RT tall fescue; [10]
  Herbicide damage: 5.3
Tomahawk RT tall fescue; [11]
  Herbicide damage %: 21.3%
Tomahawk RT tall fescue; [12]
  Turf quality (no herbicide): 4.3
  Herbicide damage: 5.3
Tomahawk RT tall fescue; ambient temperature of the plants below about 32° C.
  sensitivity to glyphosate herbicide applications: more sensitive
Tomahawk RT tall fescue; applied during the seedling stage, within the first 60-days of planting
  sensitivity to glyphosate: more sensitive
Tomahawk RT tall fescue; depending on time of year, age of the plants and environmental conditions
  tolerated application of agricultural formulations of glyphosate herbicide: up to 1 pint per acre
Tomahawk E tall fescue; [3]
  Herbicide damage: 4.3
Tomahawk E tall fescue; [4]
  Herbicide damage: 3.8
Tomahawk E tall fescue; [5]
  Summer Stress: 6.3
Tomahawk E tall fescue; [6]
  Herbicide damage %: 36.3%
  Turf quality (no herbicide): 2.8
Tomahawk E tall fescue; [7]
  Turf quality (no herbicide): 4.5
Tomahawk E tall fescue; [8]
  Turf quality (no herbicide): 3.5
Tomahawk E tall fescue; [9]
  Summer Stress: 7.3
Tomahawk E tall fescue; [10]
  Herbicide damage: 2.3
Tomahawk E tall fescue; [11]
  Herbicide damage %: 65.0%
Tomahawk E tall fescue; [12]
  Turf quality (no herbicide): 2.8
  Herbicide damage: 2.5
Tar Heel tall fescue; [3]
  Herbicide damage: 5.0
Tar Heel tall fescue; [4]
  Herbicide damage: 5.0
Tar Heel tall fescue; [5]
  Summer Stress: 7.0
Tar Heel tall fescue; [6]
  Herbicide damage %: 40.0%
  Turf quality (no herbicide): 3.0
Tar Heel tall fescue; [7]
  Turf quality (no herbicide): 5.0
Tar Heel tall fescue; [8]
  Turf quality (no herbicide): 4.0
Tar Heel tall fescue; [9]
  Summer Stress: 7.5
Tar Heel tall fescue; [10]
  Herbicide damage: 3.3
Tar Heel tall fescue; [11]
  Herbicide damage %: 76.3%
Tar Heel tall fescue; [12]
  Turf quality (no herbicide): 2.0
  Herbicide damage: 2.3
5HU tall fescue; [3]
  Herbicide damage: 5.3
5HU tall fescue; [4]
  Herbicide damage: 4.5
5HU tall fescue; [5]
  Summer Stress: 6.3
5HU tall fescue; [6]
  Herbicide damage %: 33.8%
  Turf quality (no herbicide): 2.8
5HU tall fescue; [7]
  Turf quality (no herbicide): 4.8
5HU tall fescue; [8]
  Turf quality (no herbicide): 3.8
5HU tall fescue; [9]
  Summer Stress: 7.0
5HU tall fescue; [10]
  Herbicide damage: 3.5
5HU tall fescue; [11]
  Herbicide damage %: 45.0%
5HU tall fescue; [12]
  Turf quality (no herbicide): 3.3
  Herbicide damage: 3.8
Pure Gold tall fescue; [3]
  Herbicide damage: 5.3
Pure Gold tall fescue; [4]
  Herbicide damage: 5.5
Pure Gold tall fescue; [5]
  Summer Stress: 5.3
Pure Gold tall fescue; [6]
  Herbicide damage %: 41.3%
  Turf quality (no herbicide): 3.8
Pure Gold tall fescue; [7]
  Turf quality (no herbicide): 4.8
Pure Gold tall fescue; [8]
  Turf quality (no herbicide): 3.8
Pure Gold tall fescue; [9]
  Summer Stress: 7.3
Pure Gold tall fescue; [10]
  Herbicide damage: 3.3
Pure Gold tall fescue; [11]
  Herbicide damage %: 33.8%
Pure Gold tall fescue; [12]
  Turf quality (no herbicide): 3.5
  Herbicide damage: 4.0
Wolfpack tall fescue; [3]
  Herbicide damage: 4.0
Wolfpack tall fescue; [4]
  Herbicide damage: 2.8
Wolfpack tall fescue; [5]
  Summer Stress: 5.5
Wolfpack tall fescue; [6]
  Herbicide damage %: 41.3%
  Turf quality (no herbicide): 3.3
Wolfpack tall fescue; [7]
  Turf quality (no herbicide): 4.8
Wolfpack tall fescue; [8]
  Turf quality (no herbicide): 4.5
Wolfpack tall fescue; [9]
  Summer Stress: 7.8
Wolfpack tall fescue; [10]
  Herbicide damage: 3.3
Wolfpack tall fescue; [11]
  Herbicide damage %: 52.5%
Wolfpack tall fescue; [12]
  Turf quality (no herbicide): 3.5
  Herbicide damage: 3.3
[2]
  survivors: 5%
